Results taken from US10010539B2, “Pyrazole, triazole and tetrazole orexin receptor antagonists” (MERCK SHARP & DOHME CORP., priority 2014, dated 2018).

Columns and labels:
[1] = molecular target: hOXIR (orexin-1 receptor) (Homo sapiens, UniProt O43613); experiment: FLIPR Ca2+ Flux Assay, orexin-1 receptor (hOXIR FLIPR); assay type: cell-based; conditions: CHO cells expressing the orexin-1 receptor (method text: rat; table head: hOXIR); agonist 70 pM Ala-6,12 human orexin-A
Protocol: (§1) The utility of the compounds in accordance with the present invention as orexin receptor OX1R and/or OX2R antagonists may be readily determined without undue experimentation by methodology well known in the art, including the “FLIPR Ca^2+ Flux Assay” (Okumura et al., Biochem. Biophys. Res. Comm. 280:976-981, 2001). In a typical experiment the OX1 and OX2 receptor antagonistic activity of the compounds of the present invention was determined in accordance with the following experimental method. For intracellular calcium measurements, Chinese hamster ovary (CHO) cells expressing the rat orexin-1 receptor or the human orexin-2 receptor, are grown in Iscove's modified DMEM containing 2 mM L-glutamine, […], 1% hypoxanthine-thymidine supplement, 100 U/ml penicillin, 100 μg/ml streptomycin and 10% heat-inactivated fetal calf serum (FCS). The cells are seeded at 20,000 cells/well into Becton-Dickinson black 384-well clear bottom sterile plates coated with poly-D-lysine. All reagents were from GIBCO-Invitrogen Corp. The seeded plates are incubated overnight at 37° C. and 5% CO2. Ala-6,12 human orexin-A as the agonist is prepared as a 1 mM stock solution in 1% bovine serum albumin (BSA) and diluted in assay buffer (HBSS containing 20 mM HEPES, 0.1% BSA and 2.5 mM probenecid, pH7.4) for use in the assay at a final concentration of 70 pM. Test compounds are prepared as 10 mM stock solution in DMSO, then diluted in 384-well plates, first in DMSO, then assay buffer. On the day of the assay, cells are washed 3 times with 100 μl assay buffer and then incubated for 60 min (37° C., 5% CO2) in 60 μl assay buffer containing 1 μM Fluo-4AM ester, 0.02% pluronic acid, and 1% BSA. The dye loading solution is then aspirated and cells are washed 3 times with 100 μl assay buffer. 30 μl of that same buffer is left in each well. Within the Fluorescent Imaging Plate Reader (FLIPR, Molecular Devices), test compounds are added to the plate in a volume of 25 μl, incubated for 5 min and finally 25 μl of agonist is added. Fluorescence is measured for each well at 1 second intervals for 5 minutes and the height of each fluorescence peak is compared to the height of the fluorescence peak induced by 70 pM Ala-6,12 orexin-A with buffer in place of antagonist. For each antagonist, IC50 value (the concentration of compound needed to inhibit 50% of the agonist response) is determined. Alternatively, compound potency can be assessed by a radioligand binding assay (described in Bergman et. al. Bioorg. Med. Chem. Lett. 2008, 18, 1425-1430) in which the inhibition constant (Ki) is determined in membranes prepared from CHO cells expressing either the OX1 or OX2 receptor. The intrinsic orexin receptor antagonist activity of a compound which may be used in the present invention may be determined by these assays.

human orexin-2 receptor = human orexin-2 receptor (Homo sapiens (Human), UniProt O43614); experiment: FLIPR Ca2+ Flux Assay, orexin-2 receptor (hOX2R FLIPR); assay type: cell-based; conditions: CHO cells expressing the human orexin-2 receptor; agonist 70 pM Ala-6,12 human orexin-A
Protocol: as §1

human orexin-2 receptor, sequence (O43614 whole entry): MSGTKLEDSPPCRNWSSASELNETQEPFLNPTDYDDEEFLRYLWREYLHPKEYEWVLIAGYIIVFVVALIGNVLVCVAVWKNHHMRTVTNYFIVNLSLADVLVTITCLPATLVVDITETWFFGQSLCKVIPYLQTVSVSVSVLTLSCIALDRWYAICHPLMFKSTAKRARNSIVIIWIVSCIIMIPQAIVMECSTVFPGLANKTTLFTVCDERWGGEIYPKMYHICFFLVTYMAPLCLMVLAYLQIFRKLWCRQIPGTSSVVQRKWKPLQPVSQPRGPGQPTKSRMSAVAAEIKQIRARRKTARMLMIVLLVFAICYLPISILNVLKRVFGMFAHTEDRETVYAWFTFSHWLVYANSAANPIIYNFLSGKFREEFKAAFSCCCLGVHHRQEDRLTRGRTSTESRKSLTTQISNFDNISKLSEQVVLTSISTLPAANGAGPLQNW

| SMILES | IC50 [1] | IC50 (human orexin-2 receptor) |
| --- | --- | --- |
| C[C@@H]1CC[C@@H](n2ncc(C(C)(C)O)n2)CN1C(=O)c1ccccc1C1(C#N)CC1 [Example 1, 1-(2-((2R,5R)-5-(4-(2-Hydroxypropan-2-yl)-2H-1,2,3-triazol-2-yl)-2-methylpiperidine-1-carbonyl)phenyl)cyclopropanecarbonitrile] | 1.16 µM | 13.8 nM |
| C[C@@H]1CC[C@@H](n2ncc(C(C)(C)O)n2)CN1C(=O)c1ccccc1-c1ccccc1 [Example 2, [1,1′-Biphenyl]-2-yl((2R,5R)-5-(4-(2-hydroxypropan-2-yl)-2H-1,2,3-triazol-2-yl)-2-methylpiperidin-1-yl)methanone] | 0.483 µM | 16.2 nM |
| CCCc1ncccc1C(=O)N1C[C@H](n2ncc(C(C)(C)O)n2)CC[C@H]1C [Example 3, ((2R,5R)-5-(4-(2-Hydroxypropan-2-yl)-2H-1,2,3-triazol-2-yl)-2-methylpiperidin-1-yl)(2-propylpyridin-3-yl)methanone] | > 10 µM | 1060 nM |
| CCCc1ccccc1C(=O)N1C[C@H](n2ncc(C(C)(C)O)n2)CC[C@H]1C [Example 4, ((2R,5R)-5-(4-(2-Hydroxypropan-2-yl)-2H-1,2,3-triazol-2-yl)-2-methylpiperidin-1-yl)(2-propylphenyl)methanone] | 8.11 µM | 15.9 nM |
| CC(C)c1ccccc1C(=O)N1C[C@H](n2ncc(C(C)(C)O)n2)CC[C@H]1C [Example 5, ((2R,5R)-5-(4-(2-Hydroxypropan-2-yl)-2H-1,2,3-triazol-2-yl)-2-methylpiperidin-1-yl)(2-isopropylphenyl)methanone] | > 10 µM | 71.3 nM |
| C[C@@H]1CC[C@@H](n2ncc(C(C)(C)O)n2)CN1C(=O)c1ccccc1C1CC1 [Example 6, (2-Cyclopropylphenyl)((2R,5R)-5-(4-(2-hydroxypropan-2-yl)-2H-1,2,3-triazol-2-yl)-2-methylpiperidin-1-yl)methanone] | 2.46 µM | 14.9 nM |
| C[C@@H]1CC[C@@H](n2ncc(C(C)(C)O)n2)CN1C(=O)c1cccnc1OC(F)F [Example 7, (2-(Difluoromethoxy)pyridin-3-yl)((2R,5R)-5-(4-(2-hydroxypropan-2-yl)-2H-1,2,3-triazol-2-yl)-2-methylpiperidin-1-yl)methanone] | > 10 µM | 51.7 nM |
| COC(=O)c1ncccc1C(=O)N1C[C@H](n2ncc(C(C)(C)O)n2)CC[C@H]1C [Example 8, Methyl 3-((2R,5R)-5-(4-(2-hy-droxypropan-2-yl)-2H-1,2,3-triazol-2-yl)-2-methylpiperidine-1-carbonyl)picolinate] | > 10 µM | 1780 nM |
| C[C@@H]1CC[C@@H](n2ncc(C(C)(C)O)n2)CN1C(=O)c1ccccc1CC(F)(F)F [Example 9, ((2R,5R)-5-(4-(2-Hydroxypropan-2-yl)-2H-1,2,3-triazol-2-yl)-2-methylpiperidin-1-yl)(2-(2,2,2-trifluoroethyl)phenyl)methanone] | > 10 µM | 30 nM |
| Cc1cnn(-c2ncccc2C(=O)N2C[C@H](n3ncc(C(C)(C)O)n3)CC[C@H]2C)c1 [Example 10, ((2R,5R)-5-(4-(2-Hydroxypropan-2-yl)-2H-1,2,3-triazol-2-yl)-2-methylpiperidin-1-yl)(2-(4-methyl-1H-pyrazol-1-yl)pyridin-3-yl)methanone] | > 10 µM | 26 nM |
| C[C@@H]1CC[C@@H](n2ncc(C(C)(C)O)n2)CN1C(=O)c1ccccc1SC(F)(F)F [Example 11, 2-{2-[(3R,6R)-6-Methyl-1-({2-[(trifluoromethyl)sulfanyl]pheny}carbonyl)piperidin-3-yl]-2H-1,2,3-triazol-4-yl}propan-2-ol] | 2.55 µM | 20 nM |
| C[C@@H]1CC[C@@H](n2ncc(C(C)(C)O)n2)CN1C(=O)c1cccnc1OCC(F)F [Example 13, (2-(2,2-Difluoroethoxy)pyridin-3-yl)((2R,5R)-5-(4-(2-hydroxypropan-2-yl)-2H-1,2,3-triazol-2-yl)-2-methylpiperidin-1-yl)methanone] | > 10 µM | 14.3 nM |
| C[C@@H]1CC[C@@H](n2ncc(C(C)(C)O)n2)CN1C(=O)c1cccnc1OCC(F)(F)F [Example 14, ((2R,5R)-5-(4-(2-Hydroxypropan-2-yl)-2H-1,2,3-triazol-2-yl)-2-methylpiperidin-1-yl)(2-(2,2,2-trifluoroethoxy)pyridin-3-yl)methanone] | 8.79 µM | 15.9 nM |
| C[C@@H]1CC[C@@H](n2ncc(C(C)(C)O)n2)CN1C(=O)c1ccccc1OCC(F)(F)F [Example 16, ((2R,5R)-5-(4-(2-Hydroxypropan-2-yl)-2H-1,2,3-triazol-2-yl)-2-methylpiperidin-1-yl)(2-(2,2,2-trifluoroethoxy)phenyl)methanone] | > 10 µM | 22.8 nM |
| CC(C)Oc1ccccc1C(=O)N1C[C@H](n2ncc(C(C)(C)O)n2)CC[C@H]1C [Example 17, ((2R,5R)-5-(4-(2-Hydroxypropan-2-yl)-2H-1,2,3-triazol-2-yl)-2-methylpiperidin-1-yl)(2-isopropoxyphenyl)methanone] | 3.68 µM | 16.1 nM |
| C[C@@H]1CC[C@@H](n2ncc(C(C)(C)O)n2)CN1C(=O)c1ccccc1OCC(F)F [Example 18, (2-(2,2-Difluoroethoxy)phenyl)((2R,5R)-5-(4-(2-hydroxypropan-2-yl)-2H-1,2,3-triazol-2-yl)-2-methylpiperidin-1-yl)methanone] | > 10 µM | 15 nM |
| C[C@@H]1CC[C@@H](n2ncc(C(C)(C)O)n2)CN1C(=O)c1ccccc1OC(F)(F)F [Example 19, ((2R,5R)-5-(4-(2-Hydroxypropan-2-yl)-2H-1,2,3-triazol-2-yl)-2-methylpiperidin-1-yl)(2-(trifluoromethoxy)phenyl)methanone] | 2.8 µM | 12.1 nM |
| COC(=O)c1ccccc1C(=O)N1C[C@H](n2ncc(C(C)(C)O)n2)CC[C@H]1C [Example 20, Methyl 2-((2R,5R)-5-(4-(2-hydroxypropan-2-yl)-2H-1,2,3-triazol-2-yl)-2-methylpiperidine-1-carbonyl)benzoate] | > 10 µM | 24.6 nM |
| C[C@@H]1CC[C@@H](n2ncc(C(C)(C)O)n2)CN1C(=O)c1ccccc1OC(F)F [Example 21, (2-(Difluoromethoxy)phenyl)((2R,5R)-5-(4-(2-hydroxypropan-2-yl)-2H-1,2,3-triazol-2-yl)-2-methylpiperidin-1-yl)methanone] | > 10 µM | 18 nM |
| C[C@@H]1CC[C@@H](n2ncc(C(C)(C)O)n2)CN1C(=O)c1ccccc1[C@@H]1CC1(F)F [Example 22, 2-{2-[(3R,6R)-1-({2-[(1S)-2,2-difluorocyclopropyl]phenyl}carbonyl)-6-methylpiperidin-3-yl]-2H-1,2,3-triazol-4-yl}propan-2-ol] | 0.733 µM | 8.5 nM |
| C[C@@H]1CC[C@@H](n2ncc(C(C)(C)O)n2)CN1C(=O)c1ccccc1[C@H]1CC1(F)F [Example 23, 2-{2-[(3R,6R)-1-({2-[(1R)-2,2-difluorocyclopropyl]phenyl}carbonyl)-6-methylpiperidin-3-yl]-2H-1,2,3-triazol-4-yl}propan-2-ol] | > 10 µM | 46.9 nM |
| COC(=O)c1cnn([C@@H]2CC[C@@H](C)N(C(=O)c3ccccc3-n3nccn3)C2)n1 [Example 24, Methyl 2-((3R,6R)-1-(2-(2H-1,2,3-triazol-2-yl)benzoyl)-6-methylpiperidin-3-yl)-2H-1,2,3-triazole-4-carboxylate] | > 10 µM | 512 nM |
| C[C@@H]1CC[C@@H](n2ncc(C(C)(C)O)n2)CN1C(=O)c1ccccc1-n1nccn1 [Example 25, (2-(2H-1,2,3-triazol-2-yl)phenyl)((2R,5R)-5-(4-(2-hydroxypropan-2-yl)-2H-1,2,3-triazol-2-yl)-2-methylpiperidin-1-yl)methanone] | 0.594 µM | 7.5 nM |
